In PMC6450719 (Biochimica et biophysica acta. Proteins and proteomics, 2018):

Biological target: T1, human islet amyloid polypeptide (hIAPP, amylin) (Homo sapiens, UniProt P10997)
T1 sequence (P10997 34-70 limits assumed): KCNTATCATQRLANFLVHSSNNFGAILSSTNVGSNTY
Test: ITC
Assay type: binding

Structure (SMILES): O=C(O[C@@H]1Cc2c(O)cc(O)cc2O[C@@H]1c1cc(O)c(O)c(O)c1)c1cc(O)c(O)c(O)c1 [EGCG]
- Kd: ~1100 nM
